Entries after “also recorded” stand apart in the source; their conditions may differ.
Experiments:
[1] = system: splenocytes from athymic mice (theta positive cells); assay: induction of theta positive cells in splenocytes from athymic (nude) mice in vitro; assay type: cell-based; conditions: in vitro
Source text: (4) Induction of theta positive cells in nude mice (in vitro).

[2] = system: murine spleen cells, LPS induced (B-cells); assay: LPS induced lymphocyte proliferation in mouse spleen cells in vitro; assay type: cell-based, mouse (Balb/C); conditions: for activity at 25 µg/mL: drug 25,000 ng/ml; for effect on B-cell response / LPS induced proliferation, in words: in vitro
Source text: (§1) (1) Mitogen-(Lipopolysaccharide, LPS or Con A) induced lymphocyte proliferation using murine spleen cells (in vitro)
(§2) 1. […] LPS is a mitogen which acts preferentially on B-cells. […] Con A is considered a T-cell mitogen.
(§3) 1. Balb/C male mice, 7-8 weeks old, are used up to 20-24 weeks of age.
(§4) 2. The animals are sacrificed by cervical dislocation and the animals' left sides swabbed with 70% ethanol. An incision is made between the lower ribs and pelvis, laterally from front to back, and the skin retracted. Aseptic technique is to be observed from this point on.
(§5) 3. The spleen is gently removed with sterile forceps. […] When all spleens have been collected and cleaned they are placed in a second petri dish containing 3 ml cold RPMI.
(§6) 4. Spleen cell suspensions are prepared by gentle mincing of the tissue with a sterile blade and filtering through #100 stainless steel mesh.
(§7) 6. An aliquot of the above suspension is prepared for cell counting as follows: 0.1 ml of suspension is diluted to 1.0 ml with 3% acetic acid and let stand at room temperature for at least five minutes. The sample is then diluted 1:100 with "Isoton II" (Curtis-Matheson Co.) and counted in a coulter counter.
(§8) MURINE SPLENOCYTE STIMULATION WITH CONCANAVALIN A (CON A), LIPOPOLYSACCHARIDE (LPS), AND ALLOGENEIC SPLENOCYTES (LMC).
(§9) There is set forth below the standard procedure which should be modified according to the solubility and other properties of the particular compound tested.
(§10) Add ~10 ml RPMI to 1.79 g HEPES and vortex until completely dissolved. […] Allow to warm temperature before use.
6. LPS (Sigma, E, coli serotype #011:84)--~1 mg/ml. […] Remove ~10 ml for dissolving HEPES (0.358 g) and filter HEPES solution. Add four 25 mg bottles of LPS to remaining media and incubate at 37° C. for 1 hour. Filter through 0.22 μm filters, add filtered HEPES, aliquot in 2 ml and store at -70° C.
(§11) 8. Tritiated thymidine (^3 H-TdR, Schwartz-Mann, 6 Ci/mM). Remove a slightly larger volume of ^3 H-TdR than needed from vial with a 1 cc syringe and place volume in the cap of a small sterile plastic tube. […] Vortex thoroughly before adding to plates.
(§12) 1. Animals are sacrificed by cervical dislocation killing one from each group and processing the cells individually before killing the next animal. Swab each animal with 70% ethanol before surgery. […] Use 8 vertical strokes (or enough to break up all tissue) with Teflon-tipped homogenizer. Filter each sample through a 100 mesh screen into a 50 ml tube. […] After all samples have been spun, vortex each briefly and let sit for 1 hour. Vortex each sample ~5 seconds, waiting ~10 seconds between each sample. Let sit 5 minutes, then pipet cell suspension into 5 ml (12×75 mm) tube being careful not to remove any sediment. Remove 50 ul cell suspension using micropipetter, carefully wipe pipet tip with kimwipe and pipet into 20 ml Isoton in Coulter counter vial, rinsing pipet several times in the Isoton. Add 6 drops of CyMet and swirl vial to mix. Use the following Coulter counter settings: Amplification-1, Threshold-10, and Aperture Current-1. Clean counter with Isoterge the morning of experiment and count background before standardizing with CH 0.60 Hematology Controls. After cell counts are obtained, dilute to 6×10^6 cells/ml with supplemented RPMI and aliquot into 3 tubes for the 3 assays.
(§13) 1. Pipet 100 μl control media (supplemented RPMI) or appropriate dilution of mitogen (starting with lowest concentration) into microtiter plate using Titertek multi-channel pipetter. Place plates in 37° C. CO2 incubator with CO2 set at 0.5 after each plate has been pipetted. Pipet 100 μl responder cells into wells starting with most dilute mitogen concentration. Place plates in incubator as they are filled and after all plates are in incubator, let sit for 10-20 minutes. Wrap plates with plastic wrap, recover with top, replace in incubator, and reset CO2 to ~0.05. Save ~50 ml supplemented RPMI at 4° C. for thymidine dilution.

[3] = system: murine spleen cells, Con A induced (T-cells); assay: Con A induced lymphocyte proliferation in mouse spleen cells in vitro; assay type: cell-based, mouse (Balb/C); conditions: for activity at 25 µg/mL: drug 25,000 ng/ml; for effect on Con A induced proliferation (T-cell response), in words: in vitro
Source text: as §1, §2, §3, §4, §5, §6, §7, §8, §9, §10
5. Con A (Calbiochem)--100 mg/ml NaCl injection solution (McGaw), filter, aliquot in 1 ml, and store at -70° C.
as §11, §12
as §13, with “dilution. After ~44 hours warm the RPMI to 37° C. in incubator. Dilute tritiated Thymidine 1:100 in warmed RPMI. Use Titertek to add 50 μl Thymidine to each well. Treat plates as above and incubate overnight (~18 hours).” for “dilution.”

[4] = system: antibody production to sheep red blood cells (SRBC); assay: antigen (SRBC) dependent antibody synthesis in vivo (IgM plaques); parameters: species or system Balb/C mice; conditions: for effect on antibody production in vivo, in words: SRBC immunized mice; for % change from control, antibody response to SRBC: Table X
Experimental: (3) Antigen (sheep red blood cell, SRBC) dependent antibody synthesis (in vivo)
as §9
1. A solution containing 500 μg/ml NPT is prepared by adding a preweighed amount of the drup powder to sterile BPS (phosphate buffered saline) and sonicating the solution for 30 minutes.
1. NPT drug solution is made by dissolving 500 μg NPT per mil PBS.
1. A 1.4% suspension of agarose in PBS (7 g in 500 ml) is autoclaved for 15 min.
1. Mice are immunized as follows: sheep blood (sheep #23) is received weekly from Hyland labs. It is asceptically collected in two volumes of Alseviers to one volume of blood.
6. The cell count is determined and the stock solution is diluted to 4×10^7 cells/ml. This final suspension is used for immunization.
7. Each mouse is immunized by i.v. injection into the lateral tail vein (warmed in a 50° C. water bath for veinous dilation) with 0.1 ml SRBC (sheep red blood cell) suspensions; the final concentration of SRBC's is 4×10^6 per mouse.
1. Mice are treated by i.p. injection on days […], 1, 2, and 3. A syringe (1 cc) is fitted with a one-half inch, 26 gauge needle. The needle is introduced at a 45° angle along the right side of the linea alba. A 0.2 ml volume is given to both drug and control treated groups.
2. Drug groups are given 0.2 ml of a desired concentration NPT solution which, for a 20 g mouse, is […].
1. Spleens are removed asceptically and placed individually in Falcon #2025 tissue culture tubes containing 3 ml MEM. The tubes are then stored on ice.
2. Spleens are homogenized in the same tube with a teflon pestle attached to a G. K. Heller variable speed reversible motor connected with a G. K. Heller GT-21 motor controller setting #6.
6. The cell count is obtained and the stock suspension is diluted to 1×10^7 cells/ml. The Coulter counter threshhold is set at 10. Red cells are lysed with three drops of Zap isoton.
1. Thirty-five hundredths gram agarose and 0.53 grams MEM powder are placed into an Erlenmeyer flask. Fifty ml of distilled H2 O is then added to the flask.
1. Five ml sheep blood (same batch as used for immunization) is washed three times in PBS using an IEC Clinical Standard Centrifuge, speed #4 (2800 RPM) for 10 min.
1. Agar plates are removed from refrigerator and allowed to warm to room temperature. They are labeled in triplicate for each experimental group.
2. Agar-filled tubes are removed from the water bath. One-tenth of the 10% SRBC's and 0.1 ml spleen cell suspension are added to each agar tube. The tubes are agitated on a Vortex mixer.
3. The contents of the tubes are poured immediately into agar base plates and swirled until a smooth layer is formed. The plates are placed on a level surface until the agar solidifies.
4. The plates are incubated at 37° C. in a humidified atmosphere of 5% CO2 and 95% air for 90 min.
6. Plates are removed from incubator and 1 ml of the diluted complement is added to each plate.
7. Plates are then incubated another 30-45 minutes at 37° C. Plates are then removed from incubator and counted using oblique light.

[5] = Mus musculus, B-cell, LPS 5 μg/ml, read-out: LPS D/C (maximum values)
[6] = Mus musculus, Con A .375 μg/ml, read-out: Con A D/C (maximum values)
[7] = 0.05 mg/kg, *P ≤ 0.001 where starred
[8] = 0.5 mg/kg, *P ≤ 0.001 where starred
[9] = 5.0 mg/kg, *P ≤ 0.001 where starred, NPT 16485 N.S.

c1ccc([C@H]2CN3CCSC3=N2)cc1 [Levamisole, reference compound]
production of theta positive (T) cells, in words [1]: does not possess this property

Nc1ncnc2c1nc1n2CCS1 [NPT 16422, 3-amino-7,8-dihydrothiazolo-[3,2e]-purine]
activity at 25 µg/mL [2, 5]: 37% | activity at 25 µg/mL [3, 6]: 20% | effect on Con A induced proliferation (T-cell response), in words [3]: potent inhibitors; also recorded: capable of inhibiting | effect on antibody production in vivo, in words [4]: capable of inhibiting

CSc1ncnc2c1nc1n2CCS1 [NPT 16439, 3-methylmercapto-7,8-dihydrothiazolo-[3,2e]-purine]
activity at 4.5 µg/mL ([2]; Mus musculus, B-cell, drug 4,500 ng/ml, LPS 5 μg/ml, read-out: LPS D/C (maximum values)): 100% | activity at 4.5 µg/mL ([3]; Mus musculus, drug 4,500 ng/ml, Con A .375 μg/ml, read-out: Con A D/C (maximum values)): 57% | effect on Con A induced proliferation (T-cell response), in words [3]: potent inhibitors | effect on Con A induced proliferation (T-cell response), in words ([3]; listed as 16439): capable of inhibiting | effect on Con A induced proliferation (T-cell response), in words ([3]; listed as Ib): inhibiting the T-cell response | effect on antibody production in vivo, in words [4]: potent inhibitor of antibody production | effect on antibody production in vivo, in words ([4]; listed as 16439): capable of inhibiting | % change from control, antibody response to SRBC [4, 7]: -40% | % change from control, antibody response to SRBC ([4]; dose = 0.2 mg/kg): -63%

O=c1c2nc3n(c2nc2n1CCS2)CCS3 [NPT 16449, 6-hydroxy-Bis-(3,4-dihydrothiazolo-8,9-dihydrothiazolo)-[3,2e-2,3f]purine]
activity at 21 µg/mL ([2]; Mus musculus, B-cell, drug 21,000 ng/ml, LPS 5 μg/ml, read-out: LPS D/C (maximum values)): 157% | effect on B-cell response / LPS induced proliferation, in words [2]: enhance B-cell proliferation | effect on B-cell response / LPS induced proliferation, in words ([2]; listed as IVa): stimulating the B-cell response | activity at 21 µg/mL ([3]; Mus musculus, drug 21,000 ng/ml, Con A .375 μg/ml, read-out: Con A D/C (maximum values)): 100% | effect on antibody production in vivo, in words [4]: enhancement of production of specific antibodies in vivo | % change from control, antibody response to SRBC [4, 7]: +183% | % change from control, antibody response to SRBC [4, 8]: +59%

Oc1c2ncnc-2nc2n1CCS2 [NPT 16450, 6-hydroxy-7,8-dihydrothiazolo-[3,2a]-purine]
activity at 25 µg/mL [2, 5]: 118% | activity at 25 µg/mL [3, 6]: 107% | % change from control, antibody response to SRBC [4, 7]: -64% | % change from control, antibody response to SRBC [4, 8]: +15% | % change from control, antibody response to SRBC [4, 9]: +36%

CSc1nc(O)c2nc3n(c2n1)CCS3 [NPT 16472, 3-hydroxy-5-methylmercapto-7,8-dihydrothiazolo-[3,2e]-purine]
activity at 0.01 µg/mL ([2]; Mus musculus, B-cell, drug 10 ng/ml, LPS 5 μg/ml, read-out: LPS D/C (maximum values)): 131% | effect on B-cell response / LPS induced proliferation, in words [2]: stimulating the B-cell response | activity at 0.01 µg/mL ([3]; Mus musculus, drug 10 ng/ml, Con A .375 μg/ml, read-out: Con A D/C (maximum values)): 100% | % change from control, antibody response to SRBC ([4]; dose = 0.035 mg/kg, P < 0.05): +13%

Oc1ncnc2nc3n(c12)CCS3 [NPT 16485, 6-hydroxy-7,8-dihydrothiazolo-[2,3f]-purine]
activity at 25 µg/mL [2, 5]: 185% | effect on B-cell response / LPS induced proliferation, in words [2]: enhance B-cell proliferation | effect on B-cell response / LPS induced proliferation, in words ([2]; listed as IIa): stimulating the B-cell response | activity at 25 µg/mL [3, 6]: 118% | effect on antibody production in vivo, in words [4]: enhancement of production of specific antibodies in vivo | % change from control, antibody response to SRBC [4, 7]: +28% | % change from control, antibody response to SRBC [4, 8]: +134% | % change from control, antibody response to SRBC [4, 9]: +1.7%
